Patent US4483989A, “Synthesis of pyrido[4,3-b]carbazole derivatives” (priority 1973, dated 1984)
pKd: −log10 of the molar value. Where “and” joins values, the source holds several entries; their conditions need not be identical. Equal entries are not always repeated. Where two headings read alike, the source gives them in different places.

Legend:
[1] = tested on: mouse L 1210 leukemia; test: L1210 leukemia in mice: inoculum of 10^5 cells, single dose of compound 24 hours later; assay type: in vivo; conditions: for % of killed cells / ILS (increased life span) % / Mean survival in days for treated mice: inoculum 10^5 L1210 cells; for Cured animals: cured/total; for Criterion (i): ILS higher than 100%: intraperitoneal injection of 10^5 cells
From the text: The experimental tumor mouse L 1210 leukemia is commonly used to evaluate the effects of all the antitumor compounds now used in human therapeutics,as was described, for example, by C. C. ZUBROD in Proc. Nat. Acad. Sci. USA 69, 1972, pp. 1042-1047. This experimentally formed tumoral system permits very accurate quantitative evaluation of the activity of the compound tested and also, consequently, an objective comparison of the respective activities of various compounds, for example, according to the methods described by H. E. SKIPPER, F. M. SCHABEL Jr. and W. S. WILCOX in Cancer Chemiother. Rep. 1964, pp. 1-111 and 45, 1965, pp. 5-28.
(§1) The mice were randomized in each experimental series. A first routine experiment enable the death rate by toxicity to be determined and thus established the sublethal doses.
According to the convention in force in this field, the animals which survived longer than 45 days after inoculation of tumoral cells were considered to be cured.
(§2) To evaluate the therapeutic activity of the compounds of the invention, doses of said compound were expressed basing them on the 30 days sublethal dose which was fixed at 1.
A--A tumoral inoculum of 10^5 L1210 leukemia cells was administered by the intraperitoneal way to twenty 2 to 3 months old DBA/2 strain female mice. 24 hours later, half of said mice received a single intraperitoneal injection of a variable dose of the compound to be tested and the same volume of solvent was administered to the other half of the mice by the same way; this latter half of the group of mice was therefore used as the control series. The mice were randomized in each experimental series.
Animals surviving for longer than 45 days were considered to be cured.

[2] = tested on: mouse L 1210 leukemia; test: as above; assay type: in vivo; conditions: for Criterion (iv): persistence of the antileukemic action after an intravenous injection: L1210 in vivo; for ILS (increased life span) %: I.V., dose 1 (the sublethal dose), inoculum 10^5 L1210 cells
[3] = for LDo (highest non lethal dose / sublethal dose) for mice: route not given; for DLo (I.P.): single i.p. injection
From the text: as §1, §2

[4] = Solubility; assay type: physicochemical
[5] = Autoradiography with 14C-labeled molecules (biodisponibility); assay type: in vivo
From the text: To understand the increase of the antitumor efficiency of the quaternarized compounds, several parameters of action of 9--OH--E and its methyl derivative have been comparatively established (see table III). Both compounds have about the same affinity for DNA. On a weight basis, the methyl compound is about 10 times more toxic in mice but also 10 times more efficient on leukemic mice (ILS). […] Therefore, there is no quantitative parallel between the in vivo and in vitro action of these drugs. The N-quaternization markedly changes the biodisponibility of the drugs as shown by autoradiography with ^14 C-labeled molecules. […] Several ellipticine derivatives are mutagenic on Ames Salmonella test; however, the quaternized derivatives lose this property. The microsomes, which are able to metabolize some ellipticines, increase the mutagenic ability of these drugs in vitro. […] Due to the curved shape of their molecules, their relative hydrophobicity, and the presence of a heterocyclic nitrogen, the ellipticines are good substrates for the cytochrome P450 system, provided that the 2-N remains uncharged.

[6] = Metabolic studies in mice
[7] = target: DNA; test: DNA affinity; assay type: binding
[8] = I.P., dose 0.1 of the sublethal dose
[9] = I.P., dose 1 (the sublethal dose)
[10] = I.P., dose 0.005 of the sublethal dose
[11] = I.P., dose 0.01 of the sublethal dose
[12] = I.P., dose 0.02 of the sublethal dose
[13] = I.P., dose 0.3 of the sublethal dose
[14] = I.P., dose 0.6 of the sublethal dose
[15] = I.P., dose 0.002 of the sublethal dose
[16] = I.P., dose 0.2 of the sublethal dose
[17] = I.P., dose 0.5 of the sublethal dose
[18] = I.P., dose 0.05 of the sublethal dose

## 9-hydroxy-2(β-diisopropylamino-ethyl)-ellipticiniu acetate
[1]; [8]
  % of killed cells: < 90%
  ILS (increased life span) %: 110%
  Mean survival in days for treated mice: 10.7 days
[1]; [9]
  % of killed cells: < 90%
  ILS (increased life span) %: 110%
  Mean survival in days for treated mice: 10.9 days
[2]
  Criterion (iv): persistence of the antileukemic action after an intravenous injection: +

## CC(=O)Oc1ccc2c(c1)c1c(C)c3c[n+](C)ccc3c(C)c1n2C [9-acetoxy-2,6-dimethyl-ellipticinium acetate]
[1]; mouse, in vivo
  Antitumoral activity on L1210 leukemia (comparison in words): comparable with that of the 9-hydroxy-2,6-dimethyl-ellipticinium acetate
[3]
  LDo (highest non lethal dose / sublethal dose) for mice: 50 mg/kg

## CC[n+]1ccc2c(C)c3[nH]c4ccc(OC(C)=O)cc4c3c(C)c2c1 [9-acetoxy-2-ethyl-ellipticinium acetate]
[1]; [10]
  ILS (increased life span) %: 114%
[1]; [11]
  ILS (increased life span) %: 134%
[1]; [12]
  ILS (increased life span) %: 137%
[1]; [8]
  ILS (increased life span) %: 157%
[1]; [13]
  ILS (increased life span) %: 180%
[1]; [14]
  ILS (increased life span) %: 191%
[1]; L1210 in vivo
  Chemotherapeutic index: 100
  Criterion (ii): occurrence of cured animals: +
[1]; L1210 in vivo, dose LDo /3
  Cured animals: 3/20
[3]; mice
  DLo (I.P.): 50 mg/kg

## CCN(CC)CC[n+]1ccc2c(C)c3[nH]c4ccc(O)cc4c3c(C)c2c1 [9-hydroxy-2(β-diethylamino-ethyl)-ellipticinium acetate]
[1]; [15]
  ILS (increased life span) %: 119%
[1]; [11]
  ILS (increased life span) %: 137%
[1]; [12]
  ILS (increased life span) %: 139%
[1]; [8]
  ILS (increased life span) %: 173%
[1]; [16]
  ILS (increased life span) %: 151%
[1]; [13]
  ILS (increased life span) %: 243%
[1]; [17]
  ILS (increased life span) %: 196%
[1]; L1210 in vivo
  Chemotherapeutic index: 100
  Criterion (ii): occurrence of cured animals: +
[1]; L1210 in vivo, dose LDo /2
  Cured animals: 6/20
[2]
  ILS (increased life span) %: 112%
[3]; mice, I.V.
  DLo (I.V.): 5 mg/kg
[3]; mice
  DLo (I.P.): 50 mg/kg

## Cc1c2cc[n+](CCN3CCCCC3)cc2c(C)c2c1[nH]c1ccc(O)cc12 [9-hydroxy-2(β-piperidino-ethyl)-ellipticinium acetate]
[1]; [15]
  ILS (increased life span) %: 113%
[1]; [10]
  ILS (increased life span) %: 119%
[1]; [11]
  ILS (increased life span) %: 124%
[1]; [12]
  ILS (increased life span) %: 131%
[1]; [8]
  ILS (increased life span) %: 181%
[1]; [16]
  ILS (increased life span) %: 202%
[1]; [9]
  ILS (increased life span) %: 171%
[1]; I.V., dose 1 (the sublethal dose)
  ILS (increased life span) %: 131%
[1]; L1210 in vivo
  Chemotherapeutic index: 100
  Criterion (ii): occurrence of cured animals: +
  Criterion (i): ILS higher than 100%: + (increased life span (ILS) higher than 100% after intraperitoneal injection of 10^5 cells)
[1]; L1210 in vivo, dose LDo /5
  Increased life span (ILS): 102%
[1]; L1210 in vivo, dose LDo
  Cured animals: 5/15
[1]; L1210 in vivo, intravenous injection
  Criterion (iv): persistence of the antileukemic action after an intravenous injection: +
[3]; mice, I.V.
  DLo (I.V.): 10 mg/kg
[3]; mice
  DLo (I.P.): 50 mg/kg

## CCn1c2ccc(O)cc2c2c(C)c3c[n+](CC)ccc3c(C)c21 [9-hydroxy-2,6-diethyl-ellipticinium acetate]
[4]
  Solubility: well water soluble
[4]; water, read-out: Concentration of easily prepared aqueous solution
  Solubility: 4000 µg/mL

## Cc1c2c[n+](C)ccc2c(C)c2c1c1cc(O)ccc1n2C [9-hydroxy-2,6-dimethyl-ellipticinium acetate]
[1]; L1210
  Therapeutic index: extremely high
[3]
  LDo (highest non lethal dose / sublethal dose) for mice: 50 mg/kg

## CC[n+]1ccc2c(C)c3[nH]c4ccc(O)cc4c3c(C)c2c1 [9-hydroxy-2-ethyl ellipticinium acetate, 9-hydroxy-2-ethyl-ellipticinium acetate]
[1]; [15]
  ILS (increased life span) %: 114%
[1]; [11]
  ILS (increased life span) %: 122%
[1]; [12]
  ILS (increased life span) %: 132%
[1]; [18]
  ILS (increased life span) %: 132%
[1]; [8]
  ILS (increased life span) %: 175%
[1]; [16]
  ILS (increased life span) %: 219%
[1]; I.P., dose 0.4 of the sublethal dose
  ILS (increased life span) %: 165%
[1]; [14]
  ILS (increased life span) %: 188%
[1]; [9]
  ILS (increased life span) %: 157%
[1]; I.V., dose 0.33 of the sublethal dose
  ILS (increased life span) %: 118%
[1]; L1210 in vivo
  Chemotherapeutic index: 75
  Criterion (ii): occurrence of cured animals: +
  Criterion (i): ILS higher than 100%: + (increased life span (ILS) higher than 100% after intraperitoneal injection of 10^5 cells)
[1]; L1210 in vivo, dose LDo /5
  Increased life span (ILS): 119%
  Cured animals: 3/20
[2]
  ILS (increased life span) %: 124%
  Criterion (iv): persistence of the antileukemic action after an intravenous injection: +
[3]; mice, I.P.
  DL100 (I.P.): 100 mg/kg
[3]; mice, I.V.
  DL 100 (I.V.): 20 mg/kg
  DLo (I.V.): 15 mg/kg
[3]; mice
  DLo (I.P.): 50 mg/kg

## Cc1c2cc[n+](CCO)cc2c(C)c2c1[nH]c1ccc(O)cc12 [9-hydroxy-2-hydroxyethyl-ellipticinium acetate]
[1]; [11]
  ILS (increased life span) %: 115%
[1]; [18]
  ILS (increased life span) %: 133%
[1]; [8]
  ILS (increased life span) %: 159% and 151%
[1]; [17]
  ILS (increased life span) %: 217%
[1]; [9]
  ILS (increased life span) %: 197%
[1]; I.P., dose 1.5 of the sublethal dose
  ILS (increased life span) %: 282%
[1]; I.V., dose 0.25 of the sublethal dose
  ILS (increased life span) %: 121%
[1]; I.V., dose 0.5 of the sublethal dose
  ILS (increased life span) %: 140%
[1]; I.V., dose 2 × 0.5 of the sublethal dose
  ILS (increased life span) %: 142%
[1]; I.V., dose 3 × 0.25 of the sublethal dose
  ILS (increased life span) %: 125%
[1]; L1210 in vivo
  Criterion (ii): occurrence of cured animals: +
  Criterion (i): ILS higher than 100%: + (increased life span (ILS) higher than 100% after intraperitoneal injection of 10^5 cells)
[1]; L1210 in vivo, dose LDo /2
  Increased life span (ILS): 117%
  Cured animals: 2/15
[2]
  ILS (increased life span) %: 146%
  Criterion (iv): persistence of the antileukemic action after an intravenous injection: +
[3]; mice, I.V.
  DLo (I.V.): 20 mg/kg
[3]; mice
  DLo (I.P.): 10 mg/kg

## CC[n+]1ccc2c(C)c3c(c(C)c2c1)c1cc(O)ccc1n3C [9-hydroxy-6-methyl-2-ethyl-ellipticinium acetate]
[1]; [8]
  ILS (increased life span) %: 127%
[1]; [16]
  ILS (increased life span) %: 178%
[1]; [14]
  ILS (increased life span) %: 202%
[1]; L1210 in vivo, dose ≈ LDo /2
  Increased life span (ILS): 102%
[1]; L1210 in vivo
  Criterion (i): ILS higher than 100%: + (increased life span (ILS) higher than 100% after intraperitoneal injection of 10^5 cells)
[2]
  ILS (increased life span) %: 115%
[3]; mice, I.V.
  DLo (I.V.): 5 mg/kg
[3]; mice
  DLo (I.P.): 50 mg/kg

## Cc1c2c[n+](C)ccc2c(C)c2c1c1cc(O)ccc1n2C [9-hydroxy-6-methyl-ellipticinium iodomethylate]
[4]
  Solubility: much more soluble than the 9-hydroxy-ellipticinium iodomethylate

## Cc1c2ccncc2c(C)c2c1[nH]c1ccc(O)cc12 [Example 9-OH--E, 9-hydroxy-ellipticine, reference compound]
[5]
  Elimination: mostly eliminated through the bile into feces
  Organ distribution (autoradiography): concentrates in several organs, including the lungs and the pancreas
[1]; Mus musculus, L1210, ip, read-out: L 1210 cells: in vivo dose to reach ILS 25%
  ED (ILS 25%): 10 mg/kg
[6]
  Metabolism: only glucuroconjugated
[7]
  pKd: 6.36
[3]
  LDo (highest non lethal dose / sublethal dose) for mice: 50 mg/kg

## Cc1c2ccncc2c(C)c2c1[nH]c1ccccc12 [ellipticine]
[6]
  Metabolism: hydroxylated in the 9-position and then glucuroconjugated
